Reference: patent US20250332139A1, “PS[…] AND THEIR USE FOR TREATING […] AND NE[…] DISORDERS” (Transcend Therapeutics, Inc., priority 2021, published 2025)

Tests used:
rats = assay: Open field test (OFT); format: in vivo, rat; settings: for time spent in the center of the open field: methylone single dose IP 30 min before test (5 or 15 mg/kg in b361; 5-30 mg/kg in b50)
Procedure: This behavioral assay, also widely used as an anxiety paradigm, capitalizes on a rodent's innate fear of brightly lit open spaces, which are assumed to induce fear or anxiety. Rodents spend more time hugging the walls of the open field during the test, and these effects correlate to underlying brain regions and mechanisms.
Method: Consecutive beam breaks and/or video-tracking of time spent in the center versus periphery of the open field are measured. Also measured are parameters such as distance traveled and ambulatory activity (horizontal and vertical) for the duration of the test session.
The open field test (OFT) capitalizes on a rodent's innate fear of open spaces to assess anxiety-like behavior. More time spent in the center of an open field reflects an anxiolytic (anti-anxiety) effect.
To investigate whether MBDB has an anti-anxiety (anxiolytic) effect, rats were dosed with MBDB (0.5-30 mg/kg, IP) or vehicle (saline) and 30-minutes later were tested in the open field for 30 minutes. This anxiety test capitalizes on a rodents' innate fear of wide-open spaces and propensity to hug the walls when placed into the open field. Therefore, a drug that increases the time spent in the center of the open field has anxiolytic activity and predicts utility for treating anxiety in humans.

168 GPCRs [1] = molecular target: T1, 168 GPCRs (Homo sapiens, UniProt P51582); assay: β-arrestin GPCR screen (PathHunter/GPCRmax), agonist mode; format: cell-based
T1 construct: host or cells: PathHunter cell lines
T1 sequence (P51582 whole entry): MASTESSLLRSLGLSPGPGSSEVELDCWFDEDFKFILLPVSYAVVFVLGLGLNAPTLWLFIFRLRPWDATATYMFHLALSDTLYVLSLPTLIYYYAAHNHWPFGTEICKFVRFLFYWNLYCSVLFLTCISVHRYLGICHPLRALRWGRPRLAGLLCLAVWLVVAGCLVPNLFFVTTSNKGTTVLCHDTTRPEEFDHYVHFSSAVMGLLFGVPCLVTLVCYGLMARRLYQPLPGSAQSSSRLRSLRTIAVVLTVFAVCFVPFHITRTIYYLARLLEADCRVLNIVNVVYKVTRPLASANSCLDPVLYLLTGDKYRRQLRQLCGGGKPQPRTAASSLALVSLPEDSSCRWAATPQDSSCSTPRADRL
Procedure: (§1) For agonist determination, cells were incubated with sample to induce response. […] Vehicle concentration was 1%.

168 GPCRs [2] = molecular target: T2, 168 GPCRs (Homo sapiens, UniProt O95977); assay: as above; format: cell-based; settings: GPCR EDG6; Agonist mode; 10 uM
T2 construct: host or cells: PathHunter cell lines
Procedure: as §1

168 GPCRs [3] = molecular target: T3, 168 GPCRs (Homo sapiens, UniProt P32246); assay: as above; format: cell-based; settings: CCR1; Agonist; 1 uM
T3 construct: host or cells: PathHunter cell lines
Procedure: as §1

168 GPCRs [4] = molecular target: T4, 168 GPCRs (Homo sapiens, UniProt P48546); assay: as above; format: cell-based
T4 construct: host or cells: PathHunter cell lines
T4 sequence (P48546 22-466): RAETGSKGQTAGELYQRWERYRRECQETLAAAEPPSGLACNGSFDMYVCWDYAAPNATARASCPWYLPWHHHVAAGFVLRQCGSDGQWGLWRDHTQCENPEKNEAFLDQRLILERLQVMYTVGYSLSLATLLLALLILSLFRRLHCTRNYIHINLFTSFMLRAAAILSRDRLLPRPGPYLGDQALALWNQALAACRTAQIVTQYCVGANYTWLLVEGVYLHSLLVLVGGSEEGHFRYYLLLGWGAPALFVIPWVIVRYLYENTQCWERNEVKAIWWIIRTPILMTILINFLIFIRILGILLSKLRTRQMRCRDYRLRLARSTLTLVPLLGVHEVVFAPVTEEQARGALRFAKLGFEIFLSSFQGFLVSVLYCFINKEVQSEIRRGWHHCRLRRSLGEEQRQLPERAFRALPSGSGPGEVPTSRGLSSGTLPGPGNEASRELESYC
Procedure: as §1

168 GPCRs [5] = molecular target: T5, 168 GPCRs (Homo sapiens, UniProt P51677); assay: as above; format: cell-based; settings: CCR3; Agonist; 1 uM
T5 construct: host or cells: PathHunter cell lines
T5 sequence (P51677 whole entry): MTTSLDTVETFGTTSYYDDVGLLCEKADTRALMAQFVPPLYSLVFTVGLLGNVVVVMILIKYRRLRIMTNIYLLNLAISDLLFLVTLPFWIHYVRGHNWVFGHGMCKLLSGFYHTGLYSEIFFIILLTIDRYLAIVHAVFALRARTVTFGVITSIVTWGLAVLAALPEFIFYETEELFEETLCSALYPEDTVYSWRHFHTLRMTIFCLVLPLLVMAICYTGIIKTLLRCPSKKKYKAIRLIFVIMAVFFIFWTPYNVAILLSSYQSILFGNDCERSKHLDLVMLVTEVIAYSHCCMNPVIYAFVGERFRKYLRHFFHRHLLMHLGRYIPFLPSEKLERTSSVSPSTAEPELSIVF
Procedure: as §1

168 GPCRs [6] = molecular target: T6, 168 GPCRs (Homo sapiens, UniProt Q96LB1); assay: as above; format: cell-based; settings: GPCR MRGPRX2; Agonist mode; 10 uM
T6 construct: host or cells: PathHunter cell lines
T6 sequence (Q96LB1 whole entry): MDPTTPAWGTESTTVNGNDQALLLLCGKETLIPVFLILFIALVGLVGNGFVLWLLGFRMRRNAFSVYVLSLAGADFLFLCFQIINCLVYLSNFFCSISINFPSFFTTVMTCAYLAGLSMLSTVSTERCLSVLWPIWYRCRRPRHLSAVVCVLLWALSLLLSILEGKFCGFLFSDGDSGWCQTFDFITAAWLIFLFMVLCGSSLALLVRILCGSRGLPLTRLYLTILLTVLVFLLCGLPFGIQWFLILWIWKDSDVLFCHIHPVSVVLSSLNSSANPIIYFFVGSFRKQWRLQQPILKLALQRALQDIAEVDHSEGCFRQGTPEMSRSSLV
Procedure: as §1

168 GPCRs [7] = molecular target: T7, 168 GPCRs (Homo sapiens, UniProt P51679); assay: as above; format: cell-based; settings: CCR4; Agonist; 10 uM
T7 construct: host or cells: PathHunter cell lines
Procedure: as §1

168 GPCRs [8] = molecular target: T8, 168 GPCRs (Homo sapiens, UniProt P14416); assay: as above; format: cell-based; settings: GPCR DRD2L; Agonist mode; 10 uM
T8 construct: host or cells: PathHunter cell lines
Procedure: as §1

168 GPCRs [9] = molecular target: T9, 168 GPCRs (Homo sapiens, UniProt P32238); assay: as above; format: cell-based; settings: CCKAR; Agonist; 10 uM
T9 construct: host or cells: PathHunter cell lines
T9 sequence (P32238 whole entry): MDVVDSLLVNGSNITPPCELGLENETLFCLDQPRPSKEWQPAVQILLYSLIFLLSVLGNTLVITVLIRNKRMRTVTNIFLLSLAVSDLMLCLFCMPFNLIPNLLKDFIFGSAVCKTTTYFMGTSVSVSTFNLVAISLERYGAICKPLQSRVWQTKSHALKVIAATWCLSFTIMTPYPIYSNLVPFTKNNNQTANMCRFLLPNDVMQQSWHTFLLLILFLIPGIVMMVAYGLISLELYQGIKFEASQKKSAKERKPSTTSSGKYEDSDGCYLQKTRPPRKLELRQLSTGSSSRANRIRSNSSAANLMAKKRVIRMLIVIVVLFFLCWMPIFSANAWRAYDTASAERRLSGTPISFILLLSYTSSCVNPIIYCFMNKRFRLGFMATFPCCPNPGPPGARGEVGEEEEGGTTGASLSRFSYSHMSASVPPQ
Procedure: as §1

168 GPCRs [10] = molecular target: T10, 168 GPCRs (Homo sapiens, UniProt P23945); assay: as above; format: cell-based; settings: GPCR FSHR; Agonist mode; 10 uM
T10 construct: host or cells: PathHunter cell lines
Procedure: as §1

168 GPCRs [11] = molecular target: T11, 168 GPCRs (Homo sapiens, UniProt P25024); assay: as above; format: cell-based; settings: GPCR CXCR1; Agonist mode; 10 uM
T11 construct: host or cells: PathHunter cell lines
T11 sequence (P25024 whole entry): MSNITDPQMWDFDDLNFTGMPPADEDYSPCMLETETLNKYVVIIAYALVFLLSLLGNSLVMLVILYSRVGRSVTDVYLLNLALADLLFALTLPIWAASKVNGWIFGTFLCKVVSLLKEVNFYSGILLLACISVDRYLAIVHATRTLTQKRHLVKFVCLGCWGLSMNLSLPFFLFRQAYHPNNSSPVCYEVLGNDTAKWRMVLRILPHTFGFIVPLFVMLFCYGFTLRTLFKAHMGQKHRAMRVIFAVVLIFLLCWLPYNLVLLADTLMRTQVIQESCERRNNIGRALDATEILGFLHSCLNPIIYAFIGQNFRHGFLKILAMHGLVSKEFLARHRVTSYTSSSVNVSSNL
Procedure: as §1

168 GPCRs [12] = molecular target: T12, 168 GPCRs (Homo sapiens, UniProt P32247); assay: as above; format: cell-based; settings: BRS3; Agonist; 1 uM
T12 construct: host or cells: PathHunter cell lines
T12 sequence (P32247 whole entry): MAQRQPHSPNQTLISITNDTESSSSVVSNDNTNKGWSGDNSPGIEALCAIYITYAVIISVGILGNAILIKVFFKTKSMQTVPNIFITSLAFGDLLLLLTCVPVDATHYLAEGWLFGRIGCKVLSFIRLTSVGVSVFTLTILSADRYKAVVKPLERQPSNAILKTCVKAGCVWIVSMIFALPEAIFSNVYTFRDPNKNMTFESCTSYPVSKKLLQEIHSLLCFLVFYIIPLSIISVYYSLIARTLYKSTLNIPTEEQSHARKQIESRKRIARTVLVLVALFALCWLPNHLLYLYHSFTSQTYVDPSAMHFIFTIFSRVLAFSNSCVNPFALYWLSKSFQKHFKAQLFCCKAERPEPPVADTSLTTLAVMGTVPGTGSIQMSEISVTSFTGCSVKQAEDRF
Procedure: as §1

168 GPCRs [13] = molecular target: T13, 168 GPCRs (Homo sapiens, UniProt P21917); assay: as above; format: cell-based; settings: GPCR DRD4; Agonist mode; 10 uM
T13 construct: host or cells: PathHunter cell lines
Procedure: as §1

168 GPCRs [14] = molecular target: T14, 168 GPCRs (Homo sapiens, UniProt P25025); assay: as above; format: cell-based; settings: GPCR CXCR2; Agonist mode; 10 uM
T14 construct: host or cells: PathHunter cell lines
T14 sequence (P25025 whole entry): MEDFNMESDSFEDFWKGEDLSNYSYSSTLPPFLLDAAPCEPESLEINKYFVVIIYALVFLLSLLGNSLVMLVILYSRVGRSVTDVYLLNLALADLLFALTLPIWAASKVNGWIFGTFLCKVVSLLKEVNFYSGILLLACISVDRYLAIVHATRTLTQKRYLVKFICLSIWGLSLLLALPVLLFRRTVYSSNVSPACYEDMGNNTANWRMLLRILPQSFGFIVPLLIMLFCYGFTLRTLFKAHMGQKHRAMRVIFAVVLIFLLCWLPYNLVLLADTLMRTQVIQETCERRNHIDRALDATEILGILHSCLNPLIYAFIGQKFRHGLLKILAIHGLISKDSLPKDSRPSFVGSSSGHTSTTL
Procedure: as §1

168 GPCRs [15] = molecular target: T15, 168 GPCRs (Homo sapiens, UniProt P48145); assay: as above; format: cell-based; settings: GPCR NPBWR1; Agonist mode; 10 uM
T15 construct: host or cells: PathHunter cell lines
Procedure: as §1

168 GPCRs [16] = molecular target: T16, 168 GPCRs (Homo sapiens, UniProt O43603); assay: as above; format: cell-based; settings: GALR2; Agonist; 1 uM
T16 construct: host or cells: PathHunter cell lines
Procedure: as §1

168 GPCRs [17] = molecular target: T17, 168 GPCRs (Homo sapiens, UniProt O95136); assay: as above; format: cell-based; settings: GPCR EDG5; Agonist mode; 10 uM
T17 construct: host or cells: PathHunter cell lines
Procedure: as §1

168 GPCRs [18] = molecular target: T18, 168 GPCRs (Homo sapiens, UniProt P46092); assay: as above; format: cell-based; settings: CCR10; Agonist; 10 uM
T18 construct: host or cells: PathHunter cell lines
Procedure: as §1

168 GPCRs [19] = molecular target: T19, 168 GPCRs (Homo sapiens, UniProt P49682); assay: as above; format: cell-based; settings: GPCR CXCR3; Agonist mode; 10 uM
T19 construct: host or cells: PathHunter cell lines
Procedure: as §1

168 GPCRs [20] = molecular target: T20, 168 GPCRs (Homo sapiens, UniProt P25116); assay: as above; format: cell-based; settings: F2R; Agonist; 1 uM
T20 construct: host or cells: PathHunter cell lines
Procedure: as §1

168 GPCRs [21] = molecular target: T21, 168 GPCRs (Homo sapiens, UniProt P28222); assay: as above; format: cell-based
T21 construct: host or cells: PathHunter cell lines
T21 sequence (P28222 whole entry): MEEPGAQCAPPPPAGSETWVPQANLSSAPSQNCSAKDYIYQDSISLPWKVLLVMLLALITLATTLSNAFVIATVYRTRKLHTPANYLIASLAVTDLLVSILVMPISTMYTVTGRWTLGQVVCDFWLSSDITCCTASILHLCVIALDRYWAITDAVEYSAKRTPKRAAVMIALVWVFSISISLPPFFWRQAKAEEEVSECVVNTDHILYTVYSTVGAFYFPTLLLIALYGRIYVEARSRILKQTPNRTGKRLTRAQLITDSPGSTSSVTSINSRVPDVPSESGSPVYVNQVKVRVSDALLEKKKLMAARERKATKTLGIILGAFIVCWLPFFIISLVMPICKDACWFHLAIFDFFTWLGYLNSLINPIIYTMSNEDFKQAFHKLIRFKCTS
Procedure: as §1

168 GPCRs [22] = molecular target: T22, 168 GPCRs (Homo sapiens, UniProt P11229); assay: as above; format: cell-based; settings: CHRM1, Agonist
T22 construct: host or cells: PathHunter cell lines
T22 sequence (P11229 whole entry): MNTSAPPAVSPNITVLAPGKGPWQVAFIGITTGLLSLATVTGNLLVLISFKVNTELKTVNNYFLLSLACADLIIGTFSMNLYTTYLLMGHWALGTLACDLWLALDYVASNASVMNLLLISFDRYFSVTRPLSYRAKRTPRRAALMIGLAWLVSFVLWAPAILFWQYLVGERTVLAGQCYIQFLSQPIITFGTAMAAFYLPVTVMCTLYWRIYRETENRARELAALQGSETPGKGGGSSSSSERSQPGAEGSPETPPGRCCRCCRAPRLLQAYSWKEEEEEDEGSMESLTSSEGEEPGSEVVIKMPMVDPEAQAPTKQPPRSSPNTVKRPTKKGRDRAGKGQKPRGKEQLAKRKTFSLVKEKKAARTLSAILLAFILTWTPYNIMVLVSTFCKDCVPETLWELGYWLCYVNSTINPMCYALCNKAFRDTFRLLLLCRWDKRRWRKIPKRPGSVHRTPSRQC
Procedure: as §1

168 GPCRs [23] = molecular target: T23, 168 GPCRs (Homo sapiens, UniProt P25021); assay: as above; format: cell-based; settings: GPCR HRH2; Agonist mode; 10 uM
T23 construct: host or cells: PathHunter cell lines
Procedure: as §1

168 GPCRs [24] = molecular target: T24, 168 GPCRs (Homo sapiens, UniProt Q16602); assay: as above; format: cell-based; settings: CALCRL-RAMP3; Agonist; 10 uM
T24 construct: host or cells: PathHunter cell lines
T24 sequence (Q16602 23-461): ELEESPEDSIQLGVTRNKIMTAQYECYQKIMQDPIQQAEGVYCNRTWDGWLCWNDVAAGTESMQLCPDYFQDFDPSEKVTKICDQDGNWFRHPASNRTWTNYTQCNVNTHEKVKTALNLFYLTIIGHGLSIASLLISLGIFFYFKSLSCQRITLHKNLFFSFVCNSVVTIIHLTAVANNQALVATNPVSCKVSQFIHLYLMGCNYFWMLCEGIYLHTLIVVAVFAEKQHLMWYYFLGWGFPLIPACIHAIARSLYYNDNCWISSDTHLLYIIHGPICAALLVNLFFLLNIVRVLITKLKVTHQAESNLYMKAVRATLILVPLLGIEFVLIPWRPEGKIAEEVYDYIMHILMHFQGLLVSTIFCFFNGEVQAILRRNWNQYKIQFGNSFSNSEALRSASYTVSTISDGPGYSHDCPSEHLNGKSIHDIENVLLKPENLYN
Procedure: as §1

168 GPCRs [25] = molecular target: T25, 168 GPCRs (Homo sapiens, UniProt Q96P65); assay: as above; format: cell-based; settings: GPR103; Agonist; 1 uM
T25 construct: host or cells: PathHunter cell lines
T25 sequence (Q96P65 whole entry): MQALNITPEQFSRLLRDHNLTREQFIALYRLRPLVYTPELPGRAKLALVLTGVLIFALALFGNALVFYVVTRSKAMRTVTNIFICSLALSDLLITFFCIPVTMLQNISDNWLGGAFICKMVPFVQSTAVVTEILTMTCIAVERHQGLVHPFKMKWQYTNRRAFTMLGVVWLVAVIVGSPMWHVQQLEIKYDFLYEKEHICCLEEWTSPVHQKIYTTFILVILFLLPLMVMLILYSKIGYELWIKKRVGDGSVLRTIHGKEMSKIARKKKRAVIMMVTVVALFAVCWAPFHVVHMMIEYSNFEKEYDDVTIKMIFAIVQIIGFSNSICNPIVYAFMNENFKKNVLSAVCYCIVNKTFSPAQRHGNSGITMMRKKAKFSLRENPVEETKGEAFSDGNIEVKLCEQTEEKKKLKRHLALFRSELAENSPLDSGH
Procedure: as §1

How did the “locomotor activity in OFT” value (rats; methylone 15 or 30 mg/kg IP) turn out when `CNC(C)C(=O)c1ccc2c(c1)OCO2` (centres unmarked) [methylone, 3,4-methylenedioxy-N-methylcathinone] was run?
The value was “significant increase in locomotor activity”.

And the “time spent in the center of the open field” value (rats)?
The value was “significantly increases the time spent in the center”.

And the “time spent in the center of the open field” value (rats; listed as Methylone)?
The value was “significantly increased center time”.

What about the activity at 10 µM (168 GPCRs [1]; GPCR P2RY4, Agonist mode, 10 uM) of the same compound?
The activity at 10 µM was -4.1%.

And the activity at 1 µM (168 GPCRs [1]; P2RY4, Agonist, 1 uM)?
Its activity at 1 µM is roughly -3%.

What about the activity at 10 µM (168 GPCRs [2]) of the same compound?
The activity at 10 µM was -0.3%.

What about the activity at 1 µM (168 GPCRs [3]) of the same compound?
The activity at 1 µM was roughly -2%.

What about the activity at 1 µM (168 GPCRs [4]; GIPR, Agonist, 1 uM) of the same compound?
The activity at 1 µM was roughly -2%.

And the activity at 10 µM (168 GPCRs [4]; GPCR GIPR, Agonist mode, 10 uM)?
Its activity at 10 µM is roughly -5%.

What about the activity at 1 µM (168 GPCRs [5]) of the same compound?
Its activity at 1 µM is -0.7%.

What about the activity at 10 µM (168 GPCRs [6]) of the same compound?
The activity at 10 µM was 0.7%.

What about the activity at 10 µM (168 GPCRs [7]) of the same compound?
The activity at 10 µM was -1.4%.

What about the activity at 10 µM (168 GPCRs [8]) of the same compound?
Its activity at 10 µM is -0.7%.

And the activity at 10 µM (168 GPCRs [9])?
The activity at 10 µM was -0.3%.

What about the activity at 10 µM (168 GPCRs [10]) of the same compound?
The activity at 10 µM was -2.2%.

What about the activity at 10 µM (168 GPCRs [11]) of the same compound?
Its activity at 10 µM is -0.1%.

And the activity at 1 µM (168 GPCRs [12])?
The activity at 1 µM was -4.5%.

And the activity at 10 µM (168 GPCRs [13])?
The activity at 10 µM was -9.4%.

And the activity at 10 µM (168 GPCRs [14])?
Its activity at 10 µM is -2.6%.

And the activity at 10 µM (168 GPCRs [15])?
The activity at 10 µM was roughly -1%.

What about the activity at 1 µM (168 GPCRs [16]) of the same compound?
The activity at 1 µM was -3.4%.

What about the activity at 10 µM (168 GPCRs [17]) of the same compound?
Its activity at 10 µM is -3.7%.

What about the activity at 10 µM (168 GPCRs [18]) of the same compound?
Its activity at 10 µM is roughly -1%.

What about the activity at 10 µM (168 GPCRs [19]) of the same compound?
The activity at 10 µM was roughly 1%.

What about the activity at 1 µM (168 GPCRs [20]) of the same compound?
The activity at 1 µM was -2.5%.

And the activity at 10 µM (168 GPCRs [21]; GPCR HTR1B, Agonist mode, 10 uM)?
Its activity at 10 µM is 8.7%.

And the activity at 1 µM (168 GPCRs [21]; HTR1B, Agonist, 1 uM)?
The activity at 1 µM was roughly 3%.

And the activity at 1 µM (168 GPCRs [22]; 1 uM)?
Its activity at 1 µM is -3.1%.

What about the activity at 10 µM (168 GPCRs [22]; 10 uM) of the same compound?
Its activity at 10 µM is -8.5%.

And the activity at 10 µM (168 GPCRs [23])?
The activity at 10 µM was -2.8%.

What about the activity at 10 µM (168 GPCRs [24]) of the same compound?
The activity at 10 µM was -2.2%.

What about the activity at 1 µM (168 GPCRs [25]) of the same compound?
Its activity at 1 µM is roughly 0%.
